Assay results taken from PMC6081452, “Downstream Products are Potent Inhibitors of the Heparan Sulfate 2-O-Sulfotransferase” (Scientific Reports, 2018).

Target: T1, glyc-HS2ST (glycosylated human HS2ST), WT (Homo sapiens, UniProt Q7LGA3)
T1 construct: the human HS2ST catalytic domain region comprising of 328 amino acid residues; His8 (N, cleaved yes); AviTag (N, cleaved yes); superfolder GFP (N, cleaved yes); made in house; host or cells: HEK293-F (transient transfection, secreted)
T1 sequence (Q7LGA3 29-356 limits assumed): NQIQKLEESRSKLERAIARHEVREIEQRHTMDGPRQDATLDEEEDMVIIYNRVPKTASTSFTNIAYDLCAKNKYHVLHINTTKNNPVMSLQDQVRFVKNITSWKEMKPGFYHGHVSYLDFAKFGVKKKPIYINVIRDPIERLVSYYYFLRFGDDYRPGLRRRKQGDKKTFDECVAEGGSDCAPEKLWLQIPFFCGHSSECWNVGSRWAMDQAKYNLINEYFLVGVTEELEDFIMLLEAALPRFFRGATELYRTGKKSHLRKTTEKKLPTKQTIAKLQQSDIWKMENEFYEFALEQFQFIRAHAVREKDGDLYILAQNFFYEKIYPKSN
Experiment: BLI equilibrium binding, glyc-HS2ST WT
Details: BLI saturation binding curves, biotin-PEG4-linked hexasaccharide immobilised on sensor, n = 3, ± standard error of fit, 25 °C, PBS pH 7.8
Excerpt: HS-protein binding studies often utilize biologically-derived oligosaccharides of heterogeneous length and sulfation[34],[35]; however, the synthesis of oligosaccharides with defined length and specific sulfation patterns has recently become possible. We employed biolayer interferometry (BLI) to determine equilibrium surface binding constants (KD) for HS2ST with synthetic HS hexasaccharides (Fig. 1 and Supplementary Table 1). The HS compounds were attached to the BLI biosensor surface to conserve sample and to ensure a significant signal upon protein binding. The HS compounds contained a biotinylated PEG4 linker at the reducing terminus, enhancing the likelihood of a consistent presentation of the linear glycan on the sensor surface, in contrast to immobilizations via intra-chain modifications. […]
An expression construct was generated encoding the truncated catalytic domain of human HS2ST as an NH2-terminal fusion protein in the pGEn2 expression vector essentially as described in prior studies. […] The recombinant human HS2ST was expressed as a soluble secreted protein by transient transfection of suspension culture HEK293-F cells (FreeStyle^TM 293-Fcells, Thermo Fisher Scientific, Waltham MA) maintained at 0.5–3.0 × 10^6 cells/ml in a humidified CO2 platform shaker incubator at 37 °C with 55% humidity. […]

In the case of “GlcNS-GlcA-GlcNS-IdoA2S-GlcNS-GlcA~ [Compound 2]”, the Kd is reported as 138 ± 19 nM.
